From patent US5237055A, “Chemical modification of 2"-amino group in elsamicin A” (Bristol-Myers Squibb Company, priority 1992, dated 1993)
≈ marks a conversion by molar mass, not a printed value. Counter-ions that a name gives are not always drawn.

Tests used:
[1] = system: murine melanoma B16-F10 cells; assay: cells; settings: Mus musculus, B16-F10, 72 h, read-out: Cytotoxicity IC50
Method: For in vitro cytotoxicity experiment, murine melanoma B16-F10 cells were grown and maintained in Eagle's minimum essential medium (Nissui), which contains kanamycin (60 μg/ml), supplemented with heat-inactivated fetal calf serum (10%) and nonessential amino acids (0.6%) at 37° C. under a humidified atmosphere in a 5% CO2 incubator. Exponentially growing B16-F10 cells were harvested, counted and suspended in the culture medium at the concentration of 2.0×10^4 cells/ml. The cell suspension (180 μl) was planted into wells of a 96-well microtiter plate and incubated for 24 hours. Test compounds (20 μl) were added to the wells and the plates were further incubated for 72 hours. The cytotoxic activity was colorimetrically determined at 540 nm after staining viable cells with neutral red solution.

[2] = system: lymphocytic leukemia P388; assay: In vivo antitumor activity against P388 leukemia in mice; design: species or system mice (female CDF1); settings: for prolongation of life-span in the P388-bearing mice / times less active than the parent compound in terms of minimum effective doses (MED): P388, Q1Dx3, ip; for times less active than the parent compound in terms of minimum effective doses (MED): relative to elsamicin A
Method: (§1) Among the derivatives tested, in vivo antitumor activity of six derivatives showing relatively potent cytotoxicity was tested in the lymphocytic leukemia P388 and B16 melanoma systems. Female CDF1 (for P388) and male BDF1 (for B16) mice were inoculated by ip injection at 10^6 P388 cells and 0.5 ml of a 10% B16 brei per mouse, respectively (day 0). […] The percent increase of median survival time (MST) of treated animals over that of untreated control animals was determined and reported as T/C %. Compounds showing T/C % values of 125 or greater are considered to have significant antitumor activity. […] The others had no activity at the doses tested. Derivatives 4d, 4e, and 5 when tested in the B16 system, also gave 10-30 times less antitumor activity than elsamicin A in terms of MED (Table 5).

B16 melanoma = assay: In vivo antitumor activity against B16 melanoma in mice; design: species or system mice (male BDF1); settings: B16, Q4Dx3 ip; relative to elsamicin A
Method: as §1

Row | Compound | IC50 [1] [µg/mL] | prolongation of life-span in the P388-bearing mice [2] | times less active than the parent compound in terms of minimum effective doses (MED) [2] | times less antitumor activity than elsamicin A in terms of MED (B16 melanoma) | T/C % of MST ([2]; P388, 20 mg/kg/day, Q1Dx3, ip)
1 | CO[C@H]1[C@@H](O)[C@@H](C)O[C@H](O[C@H]2[C@H](Oc3cccc4c(O)c5c(=O)oc6ccc(C)c7c(=O)oc(c34)c5c67)O[C@H](C)[C@H](O)[C@]2(C)O)[C@@H]1NC(=O)CCC(=O)O [Compound 3b, 2"-N-(3-Carboxypropionyl)elsamicin A] | 56 (≈ 74.3 µM) | – | – | – | –
2 | CN[C@H]1[C@@H](O[C@H]2[C@H](Oc3cccc4c(O)c5c(=O)oc6ccc(C)c7c(=O)oc(c34)c5c67)O[C@H](C)[C@H](O)[C@]2(C)O)O[C@H](C)[C@H](O)[C@@H]1OC [Compound 4d, 2"-N-Methylelsamicin A] | 1.7 (≈ 2.55 µM) | quite limited prolongation of life-span | 10-30 times | 10-30 times | –
3 | CO[C@H]1[C@@H](O)[C@@H](C)O[C@H](O[C@H]2[C@H](Oc3cccc4c(O)c5c(=O)oc6ccc(C)c7c(=O)oc(c34)c5c67)O[C@H](C)[C@H](O)[C@]2(C)O)[C@@H]1NC(C)=O [Compound 3a, 2"-N-Acetylelsamicin A] | 55 (≈ 79.1 µM) | – | – | – | –
4 | CO[C@H]1[C@@H](O)[C@@H](C)O[C@H](O[C@H]2[C@H](Oc3cccc4c(O)c5c(=O)oc6ccc(C)c7c(=O)oc(c34)c5c67)O[C@H](C)[C@H](O)[C@]2(C)O)[C@@H]1N1CCOCC1 [Compound 4f, 2"-Deamino-2"-morpholinoelsamicin A] | 11 (≈ 15.2 µM) | – | – | – | –
5 | CO[C@H]1[C@@H](O)[C@@H](C)O[C@H](O[C@H]2[C@H](Oc3cccc4c(O)c5c(=O)oc6ccc(C)c7c(=O)oc(c34)c5c67)O[C@H](C)[C@H](O)[C@]2(C)O)[C@@H]1NC(C)C [Compound 4a, 2"-N-Isopropylelsamicin A] | 1.5 (≈ 2.16 µM) | quite limited prolongation of life-span | 10-30 times | – | –
6 | CO[C@H]1[C@@H](O)[C@@H](C)O[C@H](O[C@H]2[C@H](Oc3cccc4c(O)c5c(=O)oc6ccc(C)c7c(=O)oc(c34)c5c67)O[C@H](C)[C@H](O)[C@]2(C)O)[C@@H]1NC(=O)CN [Compound 3d, 2"-N-Glycylelsamicin A] | 4.1 (≈ 5.77 µM) | – | – | – | –
7 | CO[C@H]1[C@@H](O)[C@@H](C)O[C@H](O[C@H]2[C@H](Oc3cccc4c(O)c5c(=O)oc6ccc(C)c7c(=O)oc(c34)c5c67)O[C@H](C)[C@H](O)[C@]2(C)O)[C@@H]1NC=N [Compound 5, 2"-N-Formimidoylelsamicin A hydrochloride] | 0.47 | quite limited prolongation of life-span | 10-30 times | 10-30 times | –
8 | CO[C@@H]1[C@@H](N)[C@@H](O[C@H]2[C@H](Oc3cccc4c(O)c5c(=O)oc6ccc(C)c7c(=O)oc(c34)c5c67)O[C@H](C)[C@H](O)[C@]2(C)O)O[C@H](C)[C@@H]1O [Compound 1, Elsamicin A] | – | – | – | – | Tox
9 | CO[C@H]1[C@@H](O)[C@@H](C)O[C@H](O[C@H]2[C@H](Oc3cccc4c(O)c5c(=O)oc6ccc(C)c7c(=O)oc(c34)c5c67)O[C@H](C)[C@H](O)[C@]2(C)O)[C@@H]1N(C)C [Compound 4e, 2"-N,N-Dimethylelsamicin A] | 0.36 (≈ 0.528 µM) | quite limited prolongation of life-span | 10-30 times | 10-30 times | –
